{"source": "patent US20020114734A1", "about": "“Microplate thermal shift assay apparatus for ligand development and multi-variable protein chemistry optimization” (priority 1996, published 2002)", "key": {"[1]": {"test_system": "D(II) FGF receptor 1", "test": "Microplate thermal shift screen of biochemical conditions, D(II) FGF receptor 1 stability", "set-up": "species or system human", "settings": "for effect on D(II) FGF receptor 1 stability: additives in 50 mM MOPS pH 7, 0.1 M NaCl", "method": "The microplate thermal shift assay was used to simultaneously screen the effects of multiple biochemical conditions on D(II) FGF receptor 1 stability. The assays were performed by mixing 1 μL of D(II) FGFR1 (from a 500 μM concentrated stock in 50 mM HEPES pH 7.5) with 4 μL of each biochemical condition in wells of a 96-well polycarbonate microtiter plate. Final protein concentration after mixing was 100 μM and final 1,8-ANS concentration was 200 μM. Biochemical conditions were tested as follows: The pH's tested were 5 (Na acetate), 6 (MES), 7 (MOPS), 8 (HEPES), and 9 (CHES), with final buffer concentrations of 50 mM.\nThe salt concentrations tested were 0.1 or 0.5 M NaCl. Additives were tested in 50 mM MOPS, pH 7, 0.1 M NaCl, at final concentrations of 1 mM (EDTA, dithiothreitol), 10 mM (CaCl2, MgCl2, MgSO4, NiSO4), 50 mM (arginine), 100 mM ((NH4)2SO4, LiSO4, Na2SO4, ZnSO4), 5% w/v (polyethylene glycol 6000), and 10% v/v glycerol.\n(§1) Thermal denaturation profiles were generated as previously described for thrombin, aFGF, Factor D, and Factor Xa, by incremental heating of the microplate followed by a fluorescence reading after each temperature increase. Data were analyzed by non-linear least squares fitting as described previously."}, "[2]": {"target": "T1, human α-thrombin (Homo sapiens, UniProt P00734)", "T1 construct": "A stock human α-thrombin solution; purchased Enzyme Research Labs", "test": "Microplate thermal shift screen of biochemical conditions, thrombin stability", "settings": "for effect on human α-thrombin stability: 10% glycerol, 10 mM dithiothreitol", "method": "The microplate thermal shift assay was used, with four different fluorophores, to simultaneously screen the effects of multiple pH values, sodium chloride concentrations, and reduction-oxidation compounds on human α-thrombin stability. […] Reaction volume was 100 μL."}, "[3]": {"test_system": "human urokinase-type plasminogen activator (u-PA)", "test": "Miniaturized (5 μL) microplate thermal shift assay of urokinase", "type": "binding", "settings": "CMK-u-PA complex, MOPS pH 7, NaCl, 1,8-ANS", "excerpt": "Another target molecule analyzed was human urokinase-type plasminogen activator (u-PA). U-PA enzymatically converts plasminogen into the active protease plasmin. U-PA is involved in tissue remodeling, cellular migration and metastases. The gene for u-PA was obtained from ATCC (Rockville, Md.) and modified to appropriately express active enzyme in E. coli. u-PA was cloned, overexpressed in E. coli, and purified using procedures similar to those described by Winkler et al. (Biochemistry 25:4041-4045 (1986)). […] The experiment was performed in the miniaturized format in 5 μL well volume. One μL of concentrated CMK-u-PA (13 g/L, 371.4 μM) was added to 4 μL of 62.5 mM MOPS, pH 7, 125 mM NaCl, and 250 μM 1,8-ANS, in multiple wells of a 96-well polycarbonate V-bottom microtiter plate. A thermal denaturation curve was generated as previously described for thrombin, aFGF, D(II)FGFR1, Factor D, and Factor Xa, by incremental heating of the microplate followed by a fluorescence reading after each temperature increase."}, "[4]": {"test_system": "human urokinase", "test": "Microplate thermal shift screen of biochemical conditions, urokinase stability", "settings": "0.1 or 0.5 M NaCl; 10% glycerol", "method": "The microplate thermal shift assay was used to simultaneously screen the effects of multiple biochemical conditions on human urokinase stability. This experiment was performed by mixing 1 μL of urokinase (from a […] concentrated stock in 20 mM Tris pH 8) with 4 μL of each biochemical condition in wells of a 96-well polycarbonate microtiter plate. Final protein concentration after mixing was 74 μM and final 1,8-ANS concentration was 200 μM. Biochemical conditions were tested as follows: The pH's tested were 5 (acetate), 6 (MES), 7 (MOPS), 8 (HEPES), and 9 (CHES) with final buffer concentrations of 50 mM. The salt concentrations tested were 0.1 or 0.5 M NaCl. Glycerol was tested at 10% v/v in 50 mM MOPS, pH 7, 0.1 M NaCl.\nas §1, with “D, D(II) FGFR1,” for “D,”"}, "[5]": {"target": "thrombin (Homo sapiens, UniProt P00734)", "settings": "5 mM Tris buffer pH 8.0, 0.1% PEG, 25° C.; read-out: Kd of Na+ binding site; cited from earlier work"}, "[6]": {"target": "T2, acidic fibroblast growth factor (aFGF) (Homo sapiens, UniProt P05230)", "T2 construct": "host or cells: E. coli", "T2 sequence (P05230 whole entry, species assumed)": "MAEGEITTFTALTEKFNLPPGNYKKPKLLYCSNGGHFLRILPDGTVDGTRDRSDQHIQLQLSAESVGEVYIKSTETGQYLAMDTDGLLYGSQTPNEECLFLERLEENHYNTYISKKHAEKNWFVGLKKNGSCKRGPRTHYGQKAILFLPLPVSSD", "test": "Microplate thermal shift assay for ligands binding to aFGF, turbidity as signal", "excerpt": "The second therapeutic receptor tested in the microplate thermal shift assay was acidic fibroblast growth factor (aFGF), a growth factor that plays a key role in angiogenesis (Folkman, J. et al., J. Biol. Chem. 267:10931-10934 (1992)). A synthetic gene for this protein was purchased from R&D Systems (Minneapolis, Minn.), and was cloned and expressed in E. coli using methods similar to those described for basic fibroblast growth factor (bFGF) (Thompson, L. D. et al., Biochemistry 33:3831-3840 (1994); Pantoliano, M. W. et al., Biochemistry 33:10229-10248 (1994); Springer, B. A. et al., J. Biol. Chem. 269:26879-26884 (1994)). Recombinant aFGF was then purified by heparin-sepharose affinity chromatography as described (Thompson, L. D. et al., Biochemistry 33:3831-3840 (1994)). aFGF is also known to bind heparin/heparan, which is a cofactor for mitogenic activity. […] A microplate thermal assay of these compounds was set up in a way similar to that described above for human α-thrombin. […] The affinity constants covered a fairly broad range of binding affinities, with pentosan PSO4 showing the highest affinity."}, "[7]": {"target": "T3, heparin binding site of basic fibroblast growth factor (bFGF) (Homo sapiens, UniProt P09038)", "T3 construct": "host or cells: E. coli", "T3 sequence (P09038 134-288, species assumed)": "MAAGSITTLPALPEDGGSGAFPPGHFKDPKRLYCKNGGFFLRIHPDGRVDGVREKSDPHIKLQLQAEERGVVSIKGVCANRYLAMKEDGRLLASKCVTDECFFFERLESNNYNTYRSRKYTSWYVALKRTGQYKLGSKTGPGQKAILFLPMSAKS", "test": "Microplate thermal shift assay for ligands binding to bFGF", "settings": "read-out: binding affinity", "excerpt": "The microplate thermal shift assay was used to assess ligands for binding to the heparin binding site of basic fibroblast growth factor (bFGF). The gene for bFGF was purchased from R&D Systems and was cloned and expressed in E. coli as previously described (Thompson, L. D. et al., Biochemistry 33:3831-3840 (1994); Pantoliano, M. W. et al., Biochemistry 33:10229-10248 (1994); Springer, B. A. et al., J. Biol. Chem. 269:26879-26884 (1994))."}, "[8]": {"target": "T4, D(II) FGFR1 (Homo sapiens, UniProt P11362)", "T4 construct": "hexa-histidine (N); made in house", "T4 sequence (P11362 158-246 limits assumed)": "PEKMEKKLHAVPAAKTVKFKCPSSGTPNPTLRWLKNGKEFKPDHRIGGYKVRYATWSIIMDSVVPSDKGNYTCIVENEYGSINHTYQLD", "test": "Miniaturized (10 μL) microplate thermal shift assay", "type": "binding", "method": "Recombinant D(II) FGFR1 was purified from inclusion bodies and purified by affinity chromatography on heparin sepharose. A stock solution of D(II) FGFR1 (15 mg/mL; 1.1 mM) was diluted to 50 μM in assay buffer (50 mM Hepes, pH 7.5, 0.1 M NaCl). The assay volume was 10 μL and the concentration of 1,8-ANS was 250 μM."}}, "note": "Read-outs that look alike come from different tables or passages of the source. Where a SMILES comes first, the peptide text is derived from it. The star is where a group is joined. CH2Cl = ClC*"}
{"compound": "O[C@H](CS)[C@H](O)CS", "note": "(racemic) [dithiothreitol]", "values": [{"measurement": "effect on D(II) FGF receptor 1 stability", "setting": "[1]", "value": "destabililzed the protein"}, {"measurement": "effect on human α-thrombin stability", "setting": "[2]", "value": "destabilizing effect"}]}
{"compound": "N.N.O=S(=O)(O)O", "note": "[(NH4)2SO4]", "values": [{"measurement": "effect on D(II) FGF receptor 1 stability", "setting": "[1]", "value": "stabilizing effects"}]}
{"compound": "N=C(N)NCCC[C@H](NC(=O)CNC(=O)[C@@H](N)CCC(=O)O)C(=O)CCl", "note": "[CMK, glu-gly-arg-chloromethylketone] (H-Glu-Gly-Arg-CH2Cl)", "values": [{"measurement": "Tm", "setting": "[3]", "value": 81, "unit": "°C"}]}
{"compound": "O=S(=O)([O-])[O-].[Li+].[Li+]", "note": "[Li2SO4]", "values": [{"measurement": "effect on D(II) FGF receptor 1 stability", "setting": "[1]", "value": "stabilizing effects"}]}
{"compound": "O=S(=O)([O-])[O-].[Mg+2]", "note": "[MgSO4]", "values": [{"measurement": "effect on D(II) FGF receptor 1 stability", "setting": "[1]", "value": "stabilized the protein"}, {"measurement": "effect on D(II) FGF receptor 1 stability", "setting": "[1]; listed as Mg2SO4", "value": "stabilizing effects"}]}
{"compound": "O=S(=O)([O-])[O-].[Na+].[Na+]", "note": "[Na2SO4]", "values": [{"measurement": "effect on D(II) FGF receptor 1 stability", "setting": "[1]", "value": "stabilizing effects"}]}
{"compound": "[Cl-].[Na+]", "note": "[NaCl, sodium chloride]", "values": [{"measurement": "effect on human urokinase stability", "setting": "[4]", "value": "stabilized the protein"}, {"measurement": "Kd", "setting": "[5]", "value": "30000 ± 3000", "unit": "µM"}, {"measurement": "ΔTm", "setting": "[1]; NaCl concentration increased from 0.1 to 0.5 M", "value": "about 5 °C"}, {"measurement": "ΔTm", "setting": "[2]; NaCl concentration increased from 0 to 0.5 M", "value": "about 12 °C"}, {"measurement": "Kd", "setting": "[2]; near the Tm (53° C.), 50 mM Hepes pH 8.0, zero and 0.10 M NaCl, read-out: NaCl binding (estimated with equation (1))", "value": "~6000", "unit": "µM"}]}
{"compound": "Cc1ccc(C(=O)Nc2ccc(S(=O)(=O)O)c3cc(S(=O)(=O)O)cc(S(=O)(=O)O)c23)cc1NC(=O)c1cccc(NC(=O)Nc2cccc(C(=O)Nc3cc(C(=O)Nc4ccc(S(=O)(=O)O)c5cc(S(=O)(=O)O)cc(S(=O)(=O)O)c45)ccc3C)c2)c1", "note": "[Suramin, suramin]", "values": [{"measurement": "Tm", "setting": "[6]; aFGF/ligand, aFGF 0.25 mg/mL, ligand 47-200 μM, turbidity", "value": 330.15, "unit": "° K"}, {"measurement": "Kd", "setting": "[6]; equation (1), estimated ΔHu 60.0 kcal/mole, ΔCpu 0.95 kcal/mole-°K, read-out: Kd at Tm", "value": 3.22, "unit": "µM"}, {"measurement": "Kd", "setting": "[6]; equation (3), ΔHL estimated −10.0 kcal/mole, read-out: Kd at 298° K Observed", "value": 0.622, "unit": "µM"}, {"measurement": "ΔTm", "setting": "[6]; relative to aFGF alone (317.15 ° K)", "value": 13.0, "unit": "° K"}, {"measurement": "Kd", "setting": "[7]", "value": 3.5, "unit": "µM"}]}
{"compound": "O=C(NCCCNC(=O)[C@H](OS(=O)(=O)O)[C@@H](OS(=O)(=O)O)[C@H](O[C@@H]1O[C@H](COS(=O)(=O)O)[C@H](OS(=O)(=O)O)[C@H](OS(=O)(=O)O)[C@H]1OS(=O)(=O)O)[C@@H](COS(=O)(=O)O)OS(=O)(=O)O)[C@H](OS(=O)(=O)O)[C@@H](OS(=O)(=O)O)[C@H](O[C@@H]1O[C@H](COS(=O)(=O)O)[C@H](OS(=O)(=O)O)[C@H](OS(=O)(=O)O)[C@H]1OS(=O)(=O)O)[C@@H](COS(=O)(=O)O)OS(=O)(=O)O", "note": "[aprosulate]", "values": [{"measurement": "unfolding transition (Tm)", "setting": "[8]; aprosulate 300 uM", "value": "about 320 K"}, {"measurement": "increase of unfolding transition", "setting": "[8]; aprosulate 300 uM, 50 μM D(II) FGFR1, 10 μL", "value": "about 8 K"}, {"measurement": "Kd", "setting": "[8]; estimate, read-out: binding affinity at the Tm", "value": "~18", "unit": "µM"}]}
{"compound": "N=C(N)NCCC[C@H](N)C(=O)O", "note": "[arginine]", "values": [{"measurement": "effect on D(II) FGF receptor 1 stability", "setting": "[1]", "value": "stabilized the protein"}]}
{"compound": "OCC(O)CO", "note": "[glycerol]", "values": [{"measurement": "effect on human urokinase stability", "setting": "[4]", "value": "stabilized the protein"}, {"measurement": "effect on D(II) FGF receptor 1 stability", "setting": "[1]", "value": "stabilized the protein"}, {"measurement": "effect on human α-thrombin stability", "setting": "[2]", "value": "stabilizing effect"}]}
